Test results as given in patent US6566373B2, “Protease inhibitors” (SmithKline Beecham Corporation, priority 1997, dated 2003).
Where a name gives a salt, the structure may show the parent alone.

Columns and labels:
cathepsin K = biological target: T1, cathepsin K (Homo sapiens, UniProt P43235); test: Cathepsin K inhibition (progress curve method, fluorogenic substrate Cbz-Phe-Arg-AMC); format: biochemical; details: human recombinant enzyme, 100 mM Na acetate pH 5.5
T1 sequence (P43235 115-329): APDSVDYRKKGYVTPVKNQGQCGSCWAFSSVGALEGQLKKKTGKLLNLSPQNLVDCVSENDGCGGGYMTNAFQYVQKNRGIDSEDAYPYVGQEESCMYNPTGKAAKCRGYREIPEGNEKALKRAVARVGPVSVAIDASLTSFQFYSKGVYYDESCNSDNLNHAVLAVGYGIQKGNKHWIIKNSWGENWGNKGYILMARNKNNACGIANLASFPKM
Experimental: Determination of Cathepsin K Proteolytic Catalytic Activity
All assays for cathepsin K were carried out with human recombinant enzyme. Standard assay conditions for the determination of kinetic constants used a fluorogenic peptide substrate, typically Cbz-Phe-Arg-AMC, and were determined in 100 mM Na acetate at pH 5.5 containing 20 mM cysteine and 5 mM EDTA. Stock substrate solutions were prepared at concentrations of 10 or 20 mM in DMSO with 20 μM final substrate concentration in the assays. All assays contained 10% DMSO. […] All assays were conducted at ambient temperature. Product fluorescence (excitation at 360 nm; emission at 460 nm) was monitored with a Perceptive Biosystems Cytofluor II fluorescent plate reader. […]
Potential inhibitors were evaluated using the progress curve method. […] For those compounds whose progress curves were linear, apparent inhibition constants (Ki,app) were calculated according to equation 1 (Brandt et al., Biochemitsry, 1989, 28, 140): […]
[AMC]=vSSt+(v0−vSS)[1−exp (−kobst)]/kobs (2) where [AMC] is the concentration of product formed over time t, v0 is the initial reaction velocity, and vSS is the final steady state rate. Values for kobs were then analyzed as a linear function of inhibitor concentration to generate an apparent second order rate constant (kobs/inhibitor concentration or kobs/[I]) describing the time-dependent inhibition. […]

CC(C)C[C@H](NS(=O)(=O)c1cccc2cccnc12)C(=O)NC1COCC1=O (mixture of isomers) [Example 7, 4-(R,S)-Amino-N-[(8-quinolinesulfonyl)-S-leucine]-tetrahydrofuran-3-one]
Ki (cathepsin K): > 10 µM

CC(C)C[C@H](NS(=O)(=O)c1cccc2cccnc12)C(=O)NC1COCC1=O (mixture of isomers) (as salt: HCl) [Example 7, 4-(R,S)-Amino-N-[(8-quinolinesulfonyl)-S-leucine]-tetrahydrofuran-3-one]
melting point: 98 °C
